Data from ChEMBL document CHEMBL4699440, “Comprehensive review on the anti-bacterial activity of 1,2,3-triazole hybrids” (Eur J Med Chem, 2019).

What was measured:
Bacillus cereus = assay: Antibacterial activity against Bacillus cereus ATCC 10876 incubated for 24 hrs by microdilution method; type: functional
Enterococcus faecalis [1] = assay: Antibacterial activity against Enterococcus faecalis ATCC 29212 incubated for 24 hrs by microdilution method; type: functional
Staphylococcus aureus [2] = assay: Antibacterial activity against Staphylococcus aureus ATCC 25923 incubated for 24 hrs by microdilution method; type: functional
Proteus mirabilis = assay: Antibacterial activity against Proteus mirabilis ATCC 35659 incubated for 24 hrs by microdilution method; type: functional
Escherichia coli [3] = assay: Antibacterial activity against Escherichia coli ATCC 25922 incubated for 24 hrs by microdilution method; type: functional
Pseudomonas aeruginosa [4] = assay: Antibacterial activity against Pseudomonas aeruginosa ATCC 27853 incubated for 24 hrs by microdilution method; type: functional
Candida albicans = assay: Antifungal activity against Candida albicans ATCC 50193 incubated for 24 hrs by microdilution method; type: functional
Aspergillus brasiliensis = assay: Antifungal activity against Aspergillus brasiliensis ATCC 16404 incubated for 24 hrs by microdilution method; type: functional
Escherichia coli [5] = assay: Antibacterial activity against Escherichia coli JM109 after overnight incubation by CLSI M7-A9 based method; type: functional
Escherichia coli [6] = assay: Antibacterial activity against Escherichia coli ATCC 25922 after overnight incubation by CLSI M7-A9 based method; type: functional
Enterococcus faecalis [7] = assay: Antibacterial activity against Enterococcus faecalis ATCC 29212 after overnight incubation by CLSI M7-A9 based method; type: functional
Staphylococcus aureus [8] = assay: Antibacterial activity against Staphylococcus aureus CIP 6525 after overnight incubation by CLSI M7-A9 based method; type: functional
Streptococcus pneumoniae = assay: Antibacterial activity against Streptococcus pneumoniae RCMB 010010 by broth dilution method; type: functional
Bacillus subtilis = assay: Antibacterial activity against Bacillus subtilis RCMB 010067 by broth dilution method; type: functional
Staphylococcus aureus [9] = assay: Antibacterial activity against Staphylococcus aureus RCMB 010025 by broth dilution method; type: functional
Pseudomonas aeruginosa [10] = assay: Antibacterial activity against Pseudomonas aeruginosa RCMB 010043 by broth dilution method; type: functional
Escherichia coli [11] = assay: Antibacterial activity against Escherichia coli RCMB 010052 by broth dilution method; type: functional
Klebsiella pneumoniae [12] = assay: Antibacterial activity against Klebsiella pneumonia RCMB 010058 by broth dilution method; type: functional
Salmonella enterica = assay: Antibacterial activity against Salmonella enterica MTCC 3224 incubated overnight by broth dilution technique; type: functional, organism-based
Pseudomonas aeruginosa [13] = assay: Antibacterial activity against Pseudomonas aeruginosa MTCC 2453 incubated overnight by broth dilution technique; type: functional, organism-based
Enterococcus faecalis [14] = assay: Antibacterial activity against Enterococcus faecalis MTCC 439 incubated overnight by broth dilution technique; type: functional, organism-based
Klebsiella pneumoniae [15] = assay: Antibacterial activity against Klebsiella pneumoniae ATCC 700603 incubated overnight by broth dilution technique; type: functional, organism-based
Escherichia coli [16] = assay: Antibacterial activity against Escherichia coli ATCC 25922 incubated overnight by broth dilution technique; type: functional, organism-based
Pseudomonas aeruginosa [17] = assay: Antibacterial activity against Pseudomonas aeruginosa 12 incubated for 20 hrs by agar dilution method; type: functional
Escherichia coli [18] = assay: Antibacterial activity against Escherichia coli NIHJ JC2 incubated for 20 hrs by agar dilution method; type: functional
Staphylococcus aureus [19] = assay: Antibacterial activity against Staphylococcus aureus 209P JC1 incubated for 20 hrs by agar dilution method; type: functional

CCCCCCCCCCCCCCn1nnc(-c2n[nH]c(=S)n2-c2ccccc2)c1-c1n[nH]c(=S)n1-c1ccccc1
2 µg/mL: MIC (Bacillus cereus) | MIC (Enterococcus faecalis [1]) | MIC (Staphylococcus aureus [2]) | MIC (Proteus mirabilis) | MIC (Escherichia coli [3]) | MIC (Pseudomonas aeruginosa [4]) | MIC (Candida albicans) | MIC (Aspergillus brasiliensis)

CCCCCCCCn1nnc(-c2n[nH]c(=S)n2-c2ccccc2)c1-c1n[nH]c(=S)n1-c1ccccc1
2 µg/mL: MIC (Bacillus cereus) | MIC (Enterococcus faecalis [1]) | MIC (Staphylococcus aureus [2]) | MIC (Proteus mirabilis) | MIC (Escherichia coli [3]) | MIC (Pseudomonas aeruginosa [4]) | MIC (Candida albicans) | MIC (Aspergillus brasiliensis)

C[C@H](c1ccccc1)N(CC(N)=O)C(=O)CN(C(=O)CN(Cc1cn(CC2CCCCC2)n[n+]1C)C(=O)CN(C(=O)CN(C(=O)CNCc1cn(CC2CCCCC2)n[n+]1C)[C@H](C)c1ccccc1)[C@H](C)c1ccccc1)[C@H](C)c1ccccc1
> 1.6 µg/mL: MIC (Escherichia coli [5]) | MIC (Escherichia coli [6]) | MIC (Enterococcus faecalis [7]) | MIC (Staphylococcus aureus [8])

CCOCSc1nnc(-c2nnn(-c3ccccc3Cl)c2-c2nnc(SCOCC)o2)o1
31.2 µg/mL: MIC (Streptococcus pneumoniae) | MIC (Bacillus subtilis) | MIC (Staphylococcus aureus [9]) | MIC (Pseudomonas aeruginosa [10]) | MIC (Escherichia coli [11]) | MIC (Klebsiella pneumoniae [12])

C[C@H](c1ccccc1)N(CC(N)=O)C(=O)CN(C(=O)CN(Cc1cn(CC2CCCCC2)nn1)C(=O)CN(C(=O)CN(C(=O)CNCc1cn(CC2CCCCC2)nn1)[C@H](C)c1ccccc1)[C@H](C)c1ccccc1)[C@H](C)c1ccccc1
> 1.6 µg/mL: MIC (Escherichia coli [5]) | MIC (Escherichia coli [6]) | MIC (Enterococcus faecalis [7]) | MIC (Staphylococcus aureus [8])

C[C@H](c1ccccc1)N(CC(N)=O)C(=O)CN(C(=O)CN(Cc1cn(CC2CCCCC2)n[n+]1C)C(=O)CN(C(=O)CN(C(=O)CN(Cc1cn(CC2CCCCC2)n[n+]1C)C(=O)CN(C(=O)CN(C(=O)CNCc1cn(CC2CCCCC2)n[n+]1C)[C@H](C)c1ccccc1)[C@H](C)c1ccccc1)[C@H](C)c1ccccc1)[C@H](C)c1ccccc1)[C@H](C)c1ccccc1
> 1.6 µg/mL: MIC (Escherichia coli [5]) | MIC (Escherichia coli [6]) | MIC (Enterococcus faecalis [7]) | MIC (Staphylococcus aureus [8])

O=C(O)c1ccc(-n2cc(COc3cccc4cccnc34)nn2)cc1
106 µg/mL: IC50 (Salmonella enterica) | IC50 (Pseudomonas aeruginosa [13]) | IC50 (Enterococcus faecalis [14]) | IC50 (Klebsiella pneumoniae [15]) | IC50 (Escherichia coli [16])

C[C@@H]1CN(c2c(F)c(N)c3c(=O)c(C(=O)O)cn(C4CC4)c3c2F)C[C@H](C)N1 [SPARFLOXACIN]
0.0125 µg/mL: MIC (Pseudomonas aeruginosa [17]) | MIC (Escherichia coli [18]) | MIC (Staphylococcus aureus [19])

CC(=O)OCCSc1nnc(-c2nnn(-c3ccccc3Cl)c2-c2nnc(SCCOC(C)=O)o2)o1
31.2 µg/mL: MIC (Streptococcus pneumoniae) | MIC (Bacillus subtilis) | MIC (Staphylococcus aureus [9]) | MIC (Pseudomonas aeruginosa [10]) | MIC (Escherichia coli [11]) | MIC (Klebsiella pneumoniae [12])

OCCCSc1nnc(-c2nnn(-c3ccccc3Cl)c2-c2nnc(SCCCO)o2)o1
4 µg/mL: MIC (Streptococcus pneumoniae) | MIC (Bacillus subtilis) | MIC (Staphylococcus aureus [9]) | MIC (Pseudomonas aeruginosa [10]) | MIC (Escherichia coli [11]) | MIC (Klebsiella pneumoniae [12])

CC(=O)OCC(CSc1nnc(-c2nnn(-c3ccccc3Cl)c2-c2nnc(SCC(COC(C)=O)OC(C)=O)o2)o1)OC(C)=O (stereo unspecified)
31.2 µg/mL: MIC (Streptococcus pneumoniae) | MIC (Bacillus subtilis) | MIC (Staphylococcus aureus [9]) | MIC (Pseudomonas aeruginosa [10]) | MIC (Escherichia coli [11]) | MIC (Klebsiella pneumoniae [12])

CC1CCN(c2cc3c(c(=O)c(C(=O)O)cn3C3CC3)c3[nH]nnc23)CC1
0.05 µg/mL: MIC (Pseudomonas aeruginosa [17]) | MIC (Escherichia coli [18]) | MIC (Staphylococcus aureus [19])

CC(=O)OCCCSc1nnc(-c2nnn(-c3ccccc3Cl)c2-c2nnc(SCCCOC(C)=O)o2)o1
31.2 µg/mL: MIC (Streptococcus pneumoniae) | MIC (Bacillus subtilis) | MIC (Staphylococcus aureus [9]) | MIC (Pseudomonas aeruginosa [10]) | MIC (Escherichia coli [11]) | MIC (Klebsiella pneumoniae [12])

NC1CCN(c2c(Cl)c3c(c(=O)c(C(=O)O)cn3C3CC3)c3[nH]nnc23)C1 (stereo unspecified)
0.05 µg/mL: MIC (Pseudomonas aeruginosa [17]) | MIC (Escherichia coli [18]) | MIC (Staphylococcus aureus [19])

CCCCCCCCCCn1nnc(-c2n[nH]c(=S)n2N)c1-c1n[nH]c(=S)n1N
1 µg/mL: MIC (Bacillus cereus) | MIC (Enterococcus faecalis [1]) | MIC (Staphylococcus aureus [2]) | MIC (Proteus mirabilis) | MIC (Escherichia coli [3]) | MIC (Pseudomonas aeruginosa [4]) | MIC (Candida albicans) | MIC (Aspergillus brasiliensis)

CCCCCCCCCCCCn1nnc(-c2n[nH]c(=S)n2N)c1-c1n[nH]c(=S)n1N
1 µg/mL: MIC (Bacillus cereus) | MIC (Enterococcus faecalis [1]) | MIC (Staphylococcus aureus [2]) | MIC (Proteus mirabilis) | MIC (Escherichia coli [3]) | MIC (Pseudomonas aeruginosa [4]) | MIC (Candida albicans) | MIC (Aspergillus brasiliensis)

CC1CCN(c2c(Cl)c3c(c(=O)c(C(=O)O)cn3C3CC3)c3[nH]nnc23)CC1
0.05 µg/mL: MIC (Pseudomonas aeruginosa [17]) | MIC (Escherichia coli [18]) | MIC (Staphylococcus aureus [19])
